Measurements from patent US20090202508A1, “NEGATIVE REGULATION OF HYPOXIA INDUCIBLE FACTOR 1 BY OS-9” (THE JOHNS HOPKINS UNIVERSITY, priority 2004, published 2009).
Peptide text beside a SMILES is read from it. * marks the point of attachment. Cbz = O=C(OCc1ccccc1)*

T1: HA-OS-9 (hemagglutinin epitope-tagged human OS-9) (human, UniProt Q13438 1-667, 35S-methionine labelled when in vitro-translated)
T1 construct: In vitro-translated in reticulocyte lysate (pull-downs) or expressed in transfected 293 cells (co-IP, lysates); also called HA-tagged OS-9; in vitro-translated OS-9
T1 sequence (looked up): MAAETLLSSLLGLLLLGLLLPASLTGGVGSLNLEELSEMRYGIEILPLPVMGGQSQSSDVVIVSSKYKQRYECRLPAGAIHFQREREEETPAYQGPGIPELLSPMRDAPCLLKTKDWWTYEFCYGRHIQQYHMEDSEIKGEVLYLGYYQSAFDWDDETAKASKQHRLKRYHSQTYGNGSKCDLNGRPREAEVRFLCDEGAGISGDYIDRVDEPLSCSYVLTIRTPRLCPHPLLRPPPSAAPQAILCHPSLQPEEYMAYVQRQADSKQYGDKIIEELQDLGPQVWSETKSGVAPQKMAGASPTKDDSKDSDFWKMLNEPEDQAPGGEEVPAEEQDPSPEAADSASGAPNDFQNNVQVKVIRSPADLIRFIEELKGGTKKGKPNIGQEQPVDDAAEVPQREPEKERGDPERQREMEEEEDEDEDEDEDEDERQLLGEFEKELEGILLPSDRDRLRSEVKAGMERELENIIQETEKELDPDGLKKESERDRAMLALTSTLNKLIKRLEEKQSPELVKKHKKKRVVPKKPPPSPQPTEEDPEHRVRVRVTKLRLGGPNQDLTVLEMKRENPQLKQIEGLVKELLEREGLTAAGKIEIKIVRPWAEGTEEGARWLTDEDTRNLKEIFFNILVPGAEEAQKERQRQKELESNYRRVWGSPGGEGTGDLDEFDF


Assays:
[1] = tested on: HIF-1α; experiment: HIF-1α protein levels by immunoblot in transfected 293 cells; format: cell-based, human; conditions: 293 cells co-transfected with HA-OS-9 and HIF-1α; MG132 10 μM; FIG. 4A
Protocol: 293 or Hep3B cells were seeded onto 24-well plates at 8×10^4 cells per well of a 24-well plate. The following day, the cells were transfected with plasmid DNAs using Fugene-6 (Roche) for 293 and Lipofectamine Plus (Invitrogen) for Hep3B cells. After 24 h, the cells were exposed to 20% or 1% O2 for 24 h. Cells were lysed, and the luciferase activities were determined by multi-well luminescence reader (PerkinElmer), using the Dual-Luciferase Reporter Assay System (Promega). For p2.1 reporter assay, cells were co-transfected with 15 ng of control reporter pSV-Renilla, 135 ng of HIF-1 reporter p2.1, and expression vector encoding HA-OS-9, HIF-1α, or empty vector. Unless indicated otherwise, 200 ng of HIF-1α, 400 ng of HA-OS-9, 1 ng of PHD2, or 1 ng of HIF-1α triple mutant P402A/P564A/N803A (HIF-1α TM) expression vector was used for co-transfection. For pGalA reporter assays, Hep3B cells were co-transfected with 12.5 ng of pSV-Renilla, reporter 200 ng of pG5ElbLuc, 100 ng of expression vector encoding the GAL4 DNA-binding domain alone or fused to HIF-1α residues 531-826 (Jiang et al. 1997) and empty vector or vector encoding HA-OS-9. For immunoblot assays, 293 cells were seeded at 3×10^6 cells per 10-cm plate. The following day, the cells were co-transfected with expression vectors using Fugene-6. After 24 h, the cells were exposed to 20% or 1% O2 with or without MG132 (10 μM) for 8 h and lysed in 200 μl of lysis buffer containing 50 mM Tris-Cl (pH 8.0), 150 mM NaCl, 5 mM EDTA, 0.1% SDS, 1% NP-40, 0.5% sodium deoxycholate, Complete protease inhibitor cocktail (Roche), sodium orthovanadate, and sodium vanadate (Sigma).

[2] = biological target: T2, PHD2 (Homo sapiens, UniProt Q9GZT9); experiment: PHD binding assay (pull down of PHD2 with GST-HIF-1α (531-826)); conditions: lysates of transfected 293 cells; 1 mM DMOG; FIG. 7B
T2 construct: expressed in transfected cells; host or cells: 293 cells (whole cell lysate used as the enzyme source)
T2 sequence (Q9GZT9 whole entry): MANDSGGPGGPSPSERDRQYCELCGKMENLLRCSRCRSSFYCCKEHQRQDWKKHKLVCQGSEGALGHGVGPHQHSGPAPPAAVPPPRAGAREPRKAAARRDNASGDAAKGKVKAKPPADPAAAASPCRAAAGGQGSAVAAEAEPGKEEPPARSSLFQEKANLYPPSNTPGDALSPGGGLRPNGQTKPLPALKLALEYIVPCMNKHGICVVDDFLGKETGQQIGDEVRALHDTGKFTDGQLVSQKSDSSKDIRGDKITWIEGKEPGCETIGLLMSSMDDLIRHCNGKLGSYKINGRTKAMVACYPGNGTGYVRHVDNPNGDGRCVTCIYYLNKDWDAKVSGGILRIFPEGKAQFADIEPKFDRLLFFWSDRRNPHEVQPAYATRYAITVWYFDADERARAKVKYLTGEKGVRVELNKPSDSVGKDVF
Protocol: (§1) For in vitro VHL binding assay, preincubated GstA and 5 μl of [^35S]methionine-labeled VHL protein were mixed in a total volume of 300 μl of PBS-T with 1 mM desferrioxamine and incubated at 4° C. for 90 min. 20 ul of glutathione-Sepharose-4B beads (Amersham Biosciences) was added and incubated for 30 min with rotation. Beads were washed three times with PBS-T. Proteins were eluted in Laemmli sample buffer, fractionated by SDS-PAGE, and detected by autoradiography. For PHD binding assay, […] of GST-HIF-1α was preincubated with 50 μg of -whole cell lysate in a total volume of 50 μl with PBS-T at 30° C. for 10 min with or without 1 mM DMOG. The reaction was terminated by addition of desferrioxamine to 1 mM, 20 μl of glutathione-Sepharose-4B beads were added and incubated for 30 min. The beads were washed three times with PBS-T. Bound protein was eluted in Laemmli sample buffer, fractionated by SDS-PAGE, and subjected to immunoblot assay using antibodies against PHD2 (Novus Biologicals Inc.) or GST (Amersham).

[3] = biological target: T2, PHD2; experiment: Prolyl hydroxylation assay / in vitro VHL binding assay with GST-HIF-1α (531-826); format: biochemical; conditions: lysates of PHD2/OS-9 transfected 293 cells; 1 mM DMOG; FIG. 7A
Protocol: [^35S]methionine-labeled VHL protein was synthesized in vitro and GST-HIF-1α (531-826) fusion protein (GstA) was expressed in E. coli. 293 cells were transfected with empty, PHD2, or OS-9 expression vector. After 24 h, cells were washed twice with cold hypotonic extraction buffer containing 20 mM Tris (pH 7.5), 5 mM KCl, 1.5 mM MgCl2, 1 mM dithiothreitol and lysed with hypotonic extraction buffer in a Dounce homogenizer. The cell extract was centrifuged at 10,000×g for 10 min at 4° C., and the supernatant was stored in aliquots at −70° C. GstA (4 μg) was preincubated with whole cell lysate (50 μg) in a total volume of 50 μl with PBS-T at 30° C. for 10 min with or without 1 mM dimethyloxalyl glycine (DMOG). The reaction was terminated by addition of desferrioxamine to 1 mM. One aliquot (0.5 μg of GstA) was used for immunoblot assay using anti-hydroxyproline-564 HIF-1α antibody (Chan et al., 2002). The remainder ([…] of GstA) was used for in vitro VHL binding assay.
as §1

[4] = biological target: T1, HA-OS-9 (hemagglutinin epitope-tagged …); experiment: GST pull-down of 35S-labelled in vitro-translated HA-OS-9, SDS-PAGE and autoradiography

Row | binding result [4] | Molecule | further results
1 | no binding | SMDESGLPQLTSYDCEVNAPIQGSRNLLQGEELLRALDQVN (other, UniProt Q16665 786-826, looked up, Expressed in E. coli; not shown: glutathione-S-transferase (GST) from a pGEX expression vector) [GST-HIF-1α (786-826)] | –
2 | no binding | GST-HIF-1α (429-608) (other, UniProt Q16665 429-608, looked up, Expressed in E. coli; not shown: glutathione-S-transferase (GST) from a pGEX expression vector) PLYNDVMLPSPNEKLQNINLAMSPLPTAETPKPLRSSADPALNQEVALKLEPNPESLELSFTMPQIQDQTPSPSDGSTRQSSPEPNSPSEYCFYVDSDMVNEFKLELVEKLFAEDTEAKNPFSTQDTDLDLEMLAPYIPMDDDFQLRSFDQLSPLESSSASPESASPQSTVTVFQQTQIQ | –

More lines, now with the values behind:

Row | Molecule | binding result [4] | further results
3 | CC(C)C[C@@H](C=O)NC(=O)[C@H](CC(C)C)NC(=O)[C@H](CC(C)C)NC(=O)OCc1ccccc1 [MG 132, reference compound] (Cbz-Leu-Leu-Leu-aldehyde) | – | reduction in HIF-1α protein levels associated with OS-9 co-expression [1]: blocked
4 | COC(=O)CNC(=O)C(=O)OC [DMOG, dimethyloxalylglycine, reference compound] | – | binding of PHD2 to GST-HIF-1α (531-826) [2]: further increased; binding of VHL to GST-HIF-1α (531-826) [3]: completely blocked
5 | GST-HIF-1α (531-610) (other, UniProt Q16665 531-610, looked up, Expressed in E. coli; not shown: glutathione-S-transferase (GST) from a pGEX expression vector) FKLELVEKLFAEDTEAKNPFSTQDTDLDLEMLAPYIPMDDDFQLRSFDQLSPLESSSASPESASPQSTVTVFQQTQIQEP | no binding | –
